{
  "source": "paper PMC5152921",
  "about": "“Evolutionary and Functional Diversification of the Vitamin D Receptor-Lithocholic Acid Partnership” (PLoS ONE, 2016)",
  "assay_in_all_cases": "Mammalian 2-hybrid assay (VDR-coregulator interaction, HepG2)",
  "format_in_all_cases": "cell-based",
  "conditions_in_all_cases": "100 μM LCA",
  "key": {"[1]": {"biological_target": "T1, Skate VDR (Leucoraja erinacea, UniProt A0A088GDQ7)", "T1 sequence (A0A088GDQ7 1-434)": "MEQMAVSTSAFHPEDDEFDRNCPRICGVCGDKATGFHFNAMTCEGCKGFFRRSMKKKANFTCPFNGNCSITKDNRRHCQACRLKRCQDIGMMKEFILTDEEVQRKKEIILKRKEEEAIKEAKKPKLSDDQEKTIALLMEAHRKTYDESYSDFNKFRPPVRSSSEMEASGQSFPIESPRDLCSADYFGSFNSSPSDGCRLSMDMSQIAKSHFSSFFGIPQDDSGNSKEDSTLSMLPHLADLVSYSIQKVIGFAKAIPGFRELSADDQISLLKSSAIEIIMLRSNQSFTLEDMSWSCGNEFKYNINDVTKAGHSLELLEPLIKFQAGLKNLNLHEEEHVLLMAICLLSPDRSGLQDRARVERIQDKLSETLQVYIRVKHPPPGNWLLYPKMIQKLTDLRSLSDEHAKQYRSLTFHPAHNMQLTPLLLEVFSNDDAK", "T1 sequence (P19793 1-462 partner)": "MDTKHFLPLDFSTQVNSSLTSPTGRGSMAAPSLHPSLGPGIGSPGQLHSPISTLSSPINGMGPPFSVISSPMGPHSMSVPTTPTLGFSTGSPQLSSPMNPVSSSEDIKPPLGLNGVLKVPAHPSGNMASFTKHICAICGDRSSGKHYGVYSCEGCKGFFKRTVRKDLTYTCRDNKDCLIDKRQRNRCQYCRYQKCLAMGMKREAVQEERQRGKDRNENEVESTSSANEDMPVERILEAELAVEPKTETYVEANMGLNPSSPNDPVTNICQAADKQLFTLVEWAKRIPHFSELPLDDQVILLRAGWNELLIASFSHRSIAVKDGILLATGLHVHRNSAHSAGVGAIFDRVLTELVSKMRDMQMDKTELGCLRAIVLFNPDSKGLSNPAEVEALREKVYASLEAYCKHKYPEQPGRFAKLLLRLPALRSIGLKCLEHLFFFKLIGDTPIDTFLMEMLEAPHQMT", "source_text": "(§1) Prey constructs included full-length VDRs fused to the herpes simplex VP16 activation domain (pVP16-VDR). Bait constructs consisted of either full-length wild-type human RXR (pM-RXRWT), a truncated human RXR mutant (pM-RXRAF2), or the defined NR box of each member of the SRC/p160 family (pM-SRC1_241-386, pM-GRIP1_479-767, or pM-ACTR392-1005) fused to the yeast Gal4 DNA-binding domain. Reporters included the Gal4 luciferase reporter (5xGal4-TATA-Luc) and pRL-CMV as an internal luciferase control.\n(§2) HepG2 cells were seeded into 96-well tissue culture plates as described above and transfected with Lipofectamine 2000 the following day. Each well received 33.6 ng pVP16-VDR, 33.6 ng pM-coregulator (where indicated), 126.6 ng 5XGal4-TATA-Luc, and 3 ng pRL-CMV. […] Positive controls were treated with 1,25D3 and vehicle controls were treated with ethanol. Luciferase activity was measured 24 hours post-exposure using the Dual-Glo Luciferase Assay System described above. Raw luciferase data were normalized to the pRL-CMV luciferase control. VDR-coregulator response was normalized to the pVP16-VDR in the absence of bait constructs. Results were analyzed using a two-way ANOVA followed by Bonferroni’s multiple comparisons test in Prism (GraphPad Inc, San Diego, CA). All experiments were replicated 3 times and conducted as groups of 4 replicate wells."}, "[2]": {"biological_target": "T2, Medaka VDRβ (Oryzias latipes, UniProt B2CCA1)", "T2 sequence (B2CCA1 1-425)": "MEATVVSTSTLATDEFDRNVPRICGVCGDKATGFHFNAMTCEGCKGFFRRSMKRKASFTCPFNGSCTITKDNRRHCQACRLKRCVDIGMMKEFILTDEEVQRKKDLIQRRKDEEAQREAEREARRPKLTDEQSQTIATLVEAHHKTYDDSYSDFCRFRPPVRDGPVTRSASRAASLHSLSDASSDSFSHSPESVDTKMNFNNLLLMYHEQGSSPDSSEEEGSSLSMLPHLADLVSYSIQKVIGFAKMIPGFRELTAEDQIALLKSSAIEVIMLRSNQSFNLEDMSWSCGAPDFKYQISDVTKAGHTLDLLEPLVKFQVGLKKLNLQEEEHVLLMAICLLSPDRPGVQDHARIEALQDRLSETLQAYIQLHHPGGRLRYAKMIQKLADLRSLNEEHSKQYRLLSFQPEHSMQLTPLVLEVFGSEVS", "T2 sequence (P19793 1-462 partner)": "T1 sequence (P19793 1-462 partner)", "source_text": "as §1, §2"}, "[3]": {"biological_target": "T3, Zebrafish VDRα (Danio rerio, UniProt Q9PTN2)", "T3 construct": "89.7 ng/well of full-length pSG5-VDR was co-transfected; expressed in transfected cells; host or cells: HepG2", "T3 sequence (Q9PTN2 1-453)": "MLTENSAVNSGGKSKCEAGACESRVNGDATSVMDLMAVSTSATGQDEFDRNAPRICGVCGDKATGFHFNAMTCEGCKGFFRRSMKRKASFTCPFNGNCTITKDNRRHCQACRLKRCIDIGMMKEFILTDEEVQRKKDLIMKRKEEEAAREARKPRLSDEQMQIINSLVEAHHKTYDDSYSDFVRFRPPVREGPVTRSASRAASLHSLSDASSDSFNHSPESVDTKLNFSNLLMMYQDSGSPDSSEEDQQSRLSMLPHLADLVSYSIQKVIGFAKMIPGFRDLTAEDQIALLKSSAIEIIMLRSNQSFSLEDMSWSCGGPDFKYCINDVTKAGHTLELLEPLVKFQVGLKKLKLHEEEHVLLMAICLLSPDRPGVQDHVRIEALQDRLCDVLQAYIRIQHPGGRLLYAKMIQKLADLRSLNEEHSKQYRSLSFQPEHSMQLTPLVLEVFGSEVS", "source_text": "as §1, §2"}, "[4]": {"biological_target": "T4, Lamprey VDR (Petromyzon marinus, UniProt Q7ZZY9)", "T4 sequence (Q7ZZY9 1-406)": "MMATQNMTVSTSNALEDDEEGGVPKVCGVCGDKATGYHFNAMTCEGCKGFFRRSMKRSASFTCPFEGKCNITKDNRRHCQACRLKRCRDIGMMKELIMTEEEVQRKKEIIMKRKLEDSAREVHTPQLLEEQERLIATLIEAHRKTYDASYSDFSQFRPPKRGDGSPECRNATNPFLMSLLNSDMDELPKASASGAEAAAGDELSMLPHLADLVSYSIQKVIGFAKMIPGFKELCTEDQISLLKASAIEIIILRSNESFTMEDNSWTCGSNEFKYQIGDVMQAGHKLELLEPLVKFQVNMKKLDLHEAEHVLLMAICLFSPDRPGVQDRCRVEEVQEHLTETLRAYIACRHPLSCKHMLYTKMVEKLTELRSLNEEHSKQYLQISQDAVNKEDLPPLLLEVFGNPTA", "T4 sequence (P19793 1-462 partner)": "T1 sequence (P19793 1-462 partner)", "source_text": "as §1, §2"}, "[5]": {"conditions": "any of the SRC/p160 coactivators"}, "[6]": {"conditions": "bait human RXRWT, presence and absence of SRC1"}},
  "data": [
    {"smiles": "C[C@H](CCC(=O)O)[C@H]1CC[C@H]2[C@@H]3CC[C@@H]4C[C@H](O)CC[C@]4(C)[C@H]3CC[C@]12C", "note": "[LCA, 5β-cholanic acid-3α-ol]", "values": [
      {"measurement": "VDR-SRC/p160 coactivator interaction", "setting": "[1]; [5]", "value": "No protein-protein interaction was observed"},
      {"measurement": "VDR-RXRWT interaction (heterodimerization)", "setting": "[1]; [6]", "value": "not observed"},
      {"measurement": "VDR-RXRWT interaction (heterodimerization)", "setting": "[2]; bait human RXRWT", "value": "Robust and significant VDR-RXRWT interactions"},
      {"measurement": "VDR-SRC1 interaction", "setting": "[2]; cotransfection of RXRWT", "value": "strong VDR-SRC1 interactions"},
      {"measurement": "VDR-SRC1 interaction", "setting": "[3]; absence of cotransfected RXRWT", "value": "successfully recruited SRC1"},
      {"measurement": "VDR-RXRWT interaction (heterodimerization)", "setting": "[3]; bait human RXRWT", "value": "Robust and significant VDR-RXRWT interactions"},
      {"measurement": "VDR-SRC1 interaction", "setting": "[3]; cotransfection of RXRWT", "value": "strong VDR-SRC1 interactions"},
      {"measurement": "VDR-SRC/p160 coactivator interaction", "setting": "[4]; [5]", "value": "No protein-protein interaction was observed"},
      {"measurement": "VDR-RXRWT interaction (heterodimerization)", "setting": "[4]; [6]", "value": "not observed"}
    ]}
  ]
}
